Source: US9714249B2 (Novartis AG, priority 2013, dated 2017)

Legend:
BRD2 (His-Brd2(60-472)) = BRD2 (His-Brd2(60-472)) (Homo sapiens (Human), UniProt P25440); test: TR-FRET in-vitro binding assay for BRD2; details: acetyl-histone H4 peptide
Procedure: All assays were performed in 384 well microtiter plates. Each assay plate contained 8-point serial dilutions for 40 test compounds, plus 16 high- and 16 low controls. Liquid handling and incubation steps were done on an Innovadyne Nanodrop Express equipped with a robotic arm (Thermo CatX, Perkin Elmer/Caliper Twister II) and an incubator (Liconic STX40, Thermo Cytomat 2C450). The assay plates were prepared by addition of 50 nl per well of compound solution in 90% DMSO HummingBird nanodispenser (Zinsser Analytic). The assay was started by stepwise addition of 4.5 μl per well of bromo domain protein (50 mM HEPES, pH 7.5, 0.005% Tween20, 0.1% BSA, 50 mM NaCl, 45 nM His-Brd2(60-472) or 45 nM His-Brd3(20-477) or 45 nM His-Brd4(44-477) all proteins produced in-house) and 4.5 μl per well of peptide solution (50 mM HEPES, pH 7.5, 0.005% Tween20, 0.1% BSA, 50 mM NaCl, 60 nM acetyl-histone H4 (AcK 5, 8, 12, 16) (Biosyntan GmbH)). Reactions were incubated at 30° C. for 35 minutes. Subsequently 4.5 μl per well detection mix (50 mM HEPES, pH 7.5, 0.005% Tween20, 0.1% BSA, 50 mM NaCl, 3 nM Eu-labeled anti-His6 antibody, 21 nM streptavidin-allophycocyanin) were added. After 35 minutes incubation at 30° C., plates were measured in a Perkin Elmer EnVision multilabel reader. Concentrations causing 50% inhibition (1050) values were determined from percent inhibition values at different compound concentrations by non-linear regression analysis.
Test compounds were dissolved in DMSO (10 mM) and transferred into 1.4 mL flat bottom or V-shaped Matrix tubes carrying a unique 2D matrix. The stock solutions were stored at […] if not used immediately. For the test procedure the vials were defrosted and identified by a scanner whereby a working sheet was generated that guided the subsequent working steps. Compound dilutions were made in 96 well plates. This format enabled the assay of maximally 40 individual test compounds at 8 concentrations (single points) including 4 reference compounds, if desired (known BET inhibitors from the prior art, for this and other assays of the type disclosed herein). The dilution protocol included the production of “pre-dilution plates”, “master plates” and “assay plates”.
Pre-dilution plates: 96 polypropylene well plates were used as pre-dilution plates. A total of 4 pre-dilution plates were prepared including 10 test compounds each on the plate positions A1-A10, one standard compound at A11 and one DMSO control at A12. All dilution steps were done on a HamiltonSTAR robot. Master plates: 30 μL of individual compound dilutions including standard compound and controls of the 4 “pre-dilution plates” were transferred into a 384 “master plate” including the following concentrations 10000, 3003, 1000, 300, 100, 30, 10 and 3 μM, respectively in 90% of DMSO. Assay plates: Identical “assay plates” were then prepared by pipetting 50 nL each of compound dilutions of the “master plates” into 384-well “assay plates” by means of a HummingBird 384-channel dispenser. These plates were used directly for the assay which was performed in a total volume of 13.55 μL. This led to a final compound concentration of 37, 11, 3.7, 1.1, 0.37, 0.11, 0.037 and 0.011 μM and a final DMSO concentration of 0.37% in the assay. Cell Growth Inhibition Assay

BRD4-NUT-fusion = BRD4-NUT-fusion (Homo sapiens (Human), UniProt O60885+Q86Y26); test: Nut-foci formation assay (HCS) in HCC2494 NUT midline carcinoma cells; format: cell-based; details: 24 hours, nuclear BRD4-NUT foci, immunofluorescence
Procedure: Compound-mediated inhibition of BRD4 activity was monitored by quantification of the number and intensity of nuclear BRD4-NUT foci using automated immunofluorescence microscopy. Briefly, 5000 cells in 20 μl fresh medium were seeded into Poly-D-Lysine-precoated 384-well plates and incubated overnight at 37° C. and 5% CO2, followed by addition of 5 μl medium containing compound dilutions at 5-fold their final intended concentration. Dose-response effects were assessed by 3-fold serial dilutions of the test compound, starting at 10 μM. […] Assay plates were imaged using the appropriate filter sets on the Cellomics VTi automated fluorescence microscopy platform (ThermoFisher Scientific) and the population average of the number of NUT-foci per nucleus is quantified using the Cellomics Spot Detection BioApplication image analysis algorithm (ThermoFisher Scientific). The effect of a particular test compound concentration on NUT-foci number and intensity is expressed as percentage of the value obtained for cells treated with vehicle only (DMSO, 0.1% final concentration), which was set as 100.

Sequence of BRD2 (His-Brd2(60-472)) (P25440 60-472, species assumed): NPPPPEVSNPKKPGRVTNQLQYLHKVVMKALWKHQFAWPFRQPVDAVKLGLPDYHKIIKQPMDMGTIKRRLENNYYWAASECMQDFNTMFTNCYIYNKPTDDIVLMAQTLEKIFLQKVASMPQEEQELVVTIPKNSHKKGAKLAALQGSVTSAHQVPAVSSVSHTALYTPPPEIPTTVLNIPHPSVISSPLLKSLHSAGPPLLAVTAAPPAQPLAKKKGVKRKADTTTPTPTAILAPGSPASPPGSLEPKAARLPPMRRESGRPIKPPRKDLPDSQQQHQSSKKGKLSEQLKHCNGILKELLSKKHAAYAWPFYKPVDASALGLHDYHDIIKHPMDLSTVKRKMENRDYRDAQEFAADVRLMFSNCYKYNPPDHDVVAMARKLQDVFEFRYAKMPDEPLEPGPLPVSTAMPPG

| IC50 (BRD2 (His-Brd2(60-472))) | IC50 (BRD4-NUT-fusion) | SMILES |
| --- | --- | --- |
| 49 nM | 57.6 nM | COc1ccc(-n2nc(C)c3c2C(c2ccc(Cl)cc2)N(c2cc(C)c(=O)n(C)c2)C3=O)cn1 (stereo not shown) [Example 20b, 6-(4-chlorophenyl)-5-(1,5-dimethyl-6-oxo-1,6-dihydropyridin-3-yl)-1-(6-methoxypyridin-3-yl)-3-methyl-5,6-dihydropyrrolo[3,4-c]pyrazol-4(1H)-one] |
| 160 nM | 58 nM | COc1ncc(-n2nc3c(c2C)C(=O)N(c2cc(Cl)c(=O)n(C)c2)C3c2ccc(Cl)cc2)cn1 (stereo not shown) [Example 8b, 5-(5-chloro-1-methyl-6-oxo-1,6-dihydropyridin-3-yl)-6-(4-chlorophenyl)-2-(2-methoxypyrimidin-5-yl)-3-methyl-5,6-dihydropyrrolo[3,4-c]pyrazol-4(2H)-one] |
| 63 nM | – | COc1ncc(-n2nc(C)c3c2C(c2ccc(Cl)cc2)N(c2cc(C)c(=O)n(C)c2)C3=O)cn1 (stereo not shown) [Example 21a, 6-(4-chlorophenyl)-5-(1,5-dimethyl-6-oxo-1,6-dihydropyridin-3-yl)-1-(2-methoxypyrimidin-5-yl)-3-methyl-5,6-dihydropyrrolo[3,4-c]pyrazol-4(1H)-one] |
| 32 nM | 74.4 nM | COc1ncccc1-n1nc2c(c1C)C(=O)N(c1cc(Cl)c(=O)n(C)c1)C2c1ccc(Cl)cc1 (stereo not shown) [Example 7b, 5-(5-chloro-1-methyl-6-oxo-1,6-dihydropyridin-3-yl)-6-(4-chlorophenyl)-2-(2-methoxypyridin-3-yl)-3-methyl-5,6-dihydropyrrolo[3,4-c]pyrazol-4(2H)-one] |
| 35 nM | 21.7 nM | CCOc1ncccc1-n1nc2c(c1C)C(=O)N(c1cc(C)c(=O)n(C)c1)C2c1ccc(Cl)cc1 (stereo not shown) [Example 18b, 6-(4-chlorophenyl)-5-(1,5-dimethyl-6-oxo-1,6-dihydropyridin-3-yl)-2-(2-ethoxypyridin-3-yl)-3-methyl-5,6-dihydropyrrolo[3,4-c]pyrazol-4(2H)-one] |
| 100 nM | – | COc1ncc(-n2nc3c(c2C)C(=O)N(c2cc(C)c(=O)n(C)c2)C3c2ccc(Cl)cc2)cn1 (stereo not shown) [Example 21b, 6-(4-chlorophenyl)-5-(1,5-dimethyl-6-oxo-1,6-dihydropyridin-3-yl)-2-(2-methoxypyrimidin-5-yl)-3-methyl-5,6-dihydropyrrolo[3,4-c]pyrazol-4(2H)-one] |

Second part, the compound before the results:

| SMILES | IC50 (BRD2 (His-Brd2(60-472))) | IC50 (BRD4-NUT-fusion) |
| --- | --- | --- |
| COc1ncccc1-n1nc(C)c2c1[C@@H](c1ccc(Cl)cc1)N(c1cc(C)c(=O)n(C)c1)C2=O [Example 25, (R)-6-(4-chlorophenyl)-5-(1,5-dimethyl-6-oxo-1,6-dihydropyridin-3-yl)-1-(2-methoxypyridin-3-yl)-3-methyl-5,6-dihydropyrrolo[3,4-c]pyrazol-4(1H)-one] | 130 nM | – |
| Cc1cc(N2C(=O)c3c(C4CC4)nn(-c4ccnn4C)c3C2c2ccc(Cl)cc2)cn(C)c1=O (stereo not shown) [Example 5, 6-(4-chlorophenyl)-3-cyclopropyl-5-(1,5-dimethyl-6-oxo-1,6-dihydropyridin-3-yl)-1-(1-methyl-1H-pyrazol-5-yl)-5,6-dihydropyrrolo[3,4-c]pyrazol-4(1H)-one] | 74 nM | 138 nM |
| Cc1cc(N2C(=O)c3c(C4CC4)nn(-c4ccnn4C)c3[C@H]2c2ccc(Cl)cc2)cn(C)c1=O [Example 22, (R)-6-(4-chlorophenyl)-3-cyclopropyl-5-(1,5-dimethyl-6-oxo-1,6-dihydropyridin-3-yl)-1-(1-methyl-1H-pyrazol-5-yl)-5,6-dihydropyrrolo[3,4-c]pyrazol-4(1H)-one] | 160 nM | – |
| CNC1=C(C(=N)C2CC2)C(=O)N(c2cc(C)c(=O)n(C)c2)[C@@H]1c1ccc(Cl)cc1 [Example 2] | 22 nM | 20.1 nM |
| COc1ncccc1-n1nc2c(c1C)C(=O)N(c1cc(C)c(=O)n(C)c1)[C@@H]2c1ccc(Cl)cc1 [Example 26, (R)-6-(4-chlorophenyl)-5-(1,5-dimethyl-6-oxo-1,6-dihydropyridin-3-yl)-2-(2-methoxypyridin-3-yl)-3-methyl-5,6-dihydropyrrolo[3,4-c]pyrazol-4(2H)-one] | 110 nM | – |
| Cc1cc(N2C(=O)c3c(C4CC4)n[nH]c3[C@H]2c2ccc(Cl)cc2)cn(C)c1=O [Example 24, (R)-6-(4-chlorophenyl)-3-cyclopropyl-5-(1,5-dimethyl-6-oxo-1,6-dihydropyridin-3-yl)-5,6-dihydropyrrolo[3,4-c]pyrazol-4(1H)-one] | 74 nM | – |
| COc1ncccc1-c1nn(C)c2c1C(=O)N(c1cc(C)c(=O)n(C)c1)[C@@H]2c1ccc(Cl)cc1 [Example 16, (R)-6-(4-chlorophenyl)-5-(1,5-dimethyl-6-oxo-1,6-dihydropyridin-3-yl)-3-(2-methoxypyridin-3-yl)-1-methyl-5,6-dihydropyrrolo[3,4-c]pyrazol-4(1H)-one] | 48.5 nM | 60.6 nM |
| COc1ncccc1-c1nn(C)c2c1C(=O)N(c1cc(C)c(=O)n(C)c1)C2c1ccc(Cl)cc1 (stereo not shown) [Example 15, 6-(4-chlorophenyl)-5-(1,5-dimethyl-6-oxo-1,6-dihydropyridin-3-yl)-3-(2-methoxypyridin-3-yl)-1-methyl-5,6-dihydropyrrolo[3,4-c]pyrazol-4(1H)-one] | 70 nM | 60.7 nM |
| Cc1nn(C2CC2)c2c1C(=O)N(c1cc(C)c(=O)n(C)c1)C2c1ccc(Cl)cc1 (stereo not shown) [Example 11, 6-(4-chlorophenyl)-1-cyclopropyl-5-(1,5-dimethyl-6-oxo-1,6-dihydropyridin-3-yl)-3-methyl-5,6-dihydropyrrolo[3,4-c]pyrazol-4(1H)-one] | 38 nM | 41.7 nM |
| Cc1cc(N2C(=O)c3c(C4CC4)nn(C)c3C2c2ccc(Cl)cc2)cn(C)c1=O (stereo not shown) [Example 1, 6-(4-chlorophenyl)-3-cyclopropyl-5-(1,5-dimethyl-6-oxo-1,6-dihydropyridin-3-yl)-1-methyl-5,6-dihydropyrrolo[3,4-c]pyrazol-4(1H)-one] | 32 nM | 33.3 nM |
| COc1ncc(-n2nc3c(c2C)C(=O)N(c2cc(C)c(=O)n(C)c2)C3c2ccc(Cl)cc2)c(OC)n1 (stereo not shown) [Example 14, 6-(4-chlorophenyl)-2-(2,4-dimethoxypyrimidin-5-yl)-5-(1,5-dimethyl-6-oxo-1,6-dihydropyridin-3-yl)-3-methyl-5,6-dihydropyrrolo[3,4-c]pyrazol-4(2H)-one] | 94 nM | – |
| COc1ccc(-n2nc(C)c3c2C(c2ccc(Cl)cc2)N(c2cc(C)c(=O)n(C)c2)C3=O)cc1 (stereo not shown) [Example 13, 6-(4-chlorophenyl)-5-(1,5-dimethyl-6-oxo-1,6-dihydropyridin-3-yl)-1-(4-methoxyphenyl)-3-methyl-5,6-dihydropyrrolo[3,4-c]pyrazol-4(1H)-one] | 97 nM | – |
| Cc1nn(C)c2c1C(=O)N(c1cc(C)c(=O)n(C)c1)C2c1ccc(Cl)cc1 (stereo not shown) [Example 10, 6-(4-chlorophenyl)-5-(1,5-dimethyl-6-oxo-1,6-dihydropyridin-3-yl)-1,3-dimethyl-5,6-dihydropyrrolo[3,4-c]pyrazol-4(1H)-one] | 84 nM | 108 nM |
| Cc1[nH]nc2c1C(=O)N(c1cc(Cl)c(=O)n(C)c1)[C@@H]2c1ccc(Cl)cc1 [Example 28, (R)-5-(5-chloro-1-methyl-6-oxo-1,6-dihydropyridin-3-yl)-6-(4-chlorophenyl)-3-methyl-5,6-dihydropyrrolo[3,4-c]pyrazol-4(2H)-one] | 170 nM | – |
